Article PMC9501525, “Conjugation of a Cationic Cell-Penetrating Peptide with a Novel Kunitzin-like Trypsin Inhibitor: New Insights for Enhancement of Peptide Bioactivities” (Pharmaceutics, 2022)
Peptide text beside a SMILES is read from it.

Assays:
trypsin = target: T1, trypsin (Bos taurus, UniProt P00760); assay: Trypsin inhibition determination (fluorogenic substrate, Morrison Ki); type: biochemical; settings: Morrison equation; substrate Phe-Pro-Arg-AMC in PBS; Km = 67.38 μM, [S] = 42.86 μM, Et = 0.0020 μM; peptide 0.1–100 µM; nine replications in three experiments; N.I. = no inhibitory effect
T1 construct: gene PRSS1
T1 sequence (P00760 24-246): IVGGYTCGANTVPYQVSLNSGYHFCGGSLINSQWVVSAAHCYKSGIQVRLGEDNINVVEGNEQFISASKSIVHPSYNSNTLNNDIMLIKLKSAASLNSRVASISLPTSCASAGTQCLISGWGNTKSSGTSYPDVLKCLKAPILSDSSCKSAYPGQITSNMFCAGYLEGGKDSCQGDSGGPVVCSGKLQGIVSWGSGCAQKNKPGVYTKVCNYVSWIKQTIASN
Protocol: Phe-Pro-Arg-AMC (Bachem, Merseyside, UK) and succinyl-Ala-Ala-Pro-Phe-AMC (Bachem, Merseyside, UK) were used as substrates for trypsin and chymotrypsin inhibition determinations, respectively. Serial peptide dilutions (0.1–100 µM in phosphate buffered saline (PBS)) were incubated with 180 µL of substrate solution (50 µM in PBS) in a black 96-well plate under dark conditions for 10 min. Immediately prior to measurement, 10 µL of trypsin/chymotrypsin working solution (0.1 µM in PBS) was added to each well (final volume of 210 µL) in the plate. Subsequently, the fluorescence intensity was measured with the FLUO star OPTIMA plate reader (BMG Labtech, Ortenberg, Germany). The whole measurement process lasted for 30 min and was carried out at an emission wavelength of 460 nm and an excitation wavelength of 395 nm. The inhibition curves of trypsin and chymotrypsin were analyzed by non-linear regression using the Morrison equation in Prism 9 (Trypsin Km = 67.38 μM; Chymotrypsin Km = 17.15 μM; [S] = 42.86 μM; Et = 0.0020 μM).

S. aureus (ATCC 6538) = type: cell-based, Staphylococcus aureus; settings: for MIC: MHB, 5 × 10^5 CFU/mL, overnight, absorbance 550 nm; for MBC: clear wells spotted onto MHA
Protocol: (§1) The antimicrobial efficacy screening of the purified peptides was performed by MIC/MBC experiments on the following six different bacteria and an opportunistic pathogenic yeast: E. coli (ATCC 8739), Klebsiella pneumoniae (K. pneumoniae) (ATCC 43816), Pseudomonas aeruginosa (P. aeruginosa) (ATCC 9027), Staphylococcus aureus (S. aureus) (ATCC 6538), methicillin-resistant Staphylococcus aureus (MRSA) (NCTC 12493), Enterococcus faecium (E. faecium) (NCTC 12697), and Candida albicans (C. albicans) (ATCC 10231). First, frozen beads of respective cultures were inoculated into Mueller Hinton broth (MHB) medium and incubated overnight at 37 °C. Next, 500 µL of respective suspensions were added to the fresh MHB medium for incubation, and then sub-cultured until reaching the log growth phase, which was determined by measuring the absorbance of cultures at a wavelength of 550 nm. Then, the subcultures were diluted to 5 × 10^5 CFU/mL and 99 µL of suspension was removed and mixed with 1 µL of peptide solution at different concentrations (double-dilution of 12,800 to 100 µM) in a 96-well plate. The blank control, vehicle control, growth control, and the positive control groups were prepared according to the conditions mentioned previously. The peptide solutions were added to the plate and mixed with the diluted microbial suspensions. After overnight incubation, the absorbance at 550 nm of each well was measured with a Synergy HT plate reader (Biotech, Minneapolis, MN, USA). Subsequently, the samples in each clear well were spotted onto Mueller Hinton agar (MHA) plates for the MBC assays of the tested peptides.

E. faecalis (NCTC 12697) = type: cell-based; settings: for MIC: MHB, 5 × 10^5 CFU/mL, overnight; for MBC: clear wells spotted onto MHA
Protocol: as §1

E. coli (ATCC 8739) = type: cell-based, Escherichia coli; settings: for MIC: MHB, 5 × 10^5 CFU/mL, overnight; for MBC: clear wells spotted onto MHA
Protocol: as §1

[1] = system: P. aeruginosa (ATCC 9027); type: cell-based, Pseudomonas aeruginosa; settings: for MIC: MHB, 5 × 10^5 CFU/mL, overnight; for MBC: clear wells spotted onto MHA
Protocol: as §1

[2] = system: K. pneumoniae (ATCC 43816); type: cell-based, Klebsiella pneumoniae; settings: for MIC: MHB, 5 × 10^5 CFU/mL, overnight; for MBC: clear wells spotted onto MHA
Protocol: as §1

C. albicans (ATCC 10231) = type: cell-based, Candida albicans; settings: for MIC: MHB, 5 × 10^5 CFU/mL, overnight; for MBC: clear wells spotted onto MHA
Protocol: as §1

E. coli biofilm = assay: Antibiofilm assays (MBIC/MBEC, crystal violet); type: cell-based, Escherichia coli; settings: for Concentration inhibiting biofilm formation (MBIC): E. coli, LB + 1% glucose, overnight 37 °C, crystal violet 595 nm, tested 1 to 128 µM; for Effect on existing biofilms (MBEC): E. coli pre-formed biofilm, 24 h, highest experimental concentration 128 µM
Protocol: To explore the ability of peptides to inhibit and eradicate the biofilm of E. coli, the minimum biofilm inhibition concentrations (MBICs) and minimum biofilm eradication concentrations (MBECs) were tested, respectively. Luria-Bertani broth (LB) medium containing 1% glucose was used to culture E. coli. The subcultured bacteria were diluted to 5 × 10^5 CFU/mL and 99 µL of this bacterial suspension was used to mix with 1 µL of peptide solution at different concentrations (double-dilution of 12,800 to 100 µM) in a 96-well plate. After overnight culture in an oscillating incubator at 37 °C and 220 rpm, the formed biofilm was washed twice with 100 µL PBS, then fixed in methanol. Next, biofilm formation was evaluated by 0.1% crystal violet staining. After dyeing for 15 min, the excess crystal violet was washed off and 30% glacial acetic acid was added to each well of a 96-well plate after drying. Then, the plate was shaken for 15 min, and the absorbance was measured at 595 nm using the Synergy HT plate reader. For the determination of MBEC, after the biofilm was formed, it was first washed twice with PBS, then the fresh medium and different concentrations of peptide (similar to MBIC experiments) were added and incubated at 37 °C at 220 rpm. The absorbance measurement was the same as previously described after 24 h of MBIC.

horse erythrocytes = assay: Haemolysis activity assay; type: cell-based; settings: 2% horse erythrocytes in PBS, 37 °C, 2 h
Protocol: Horse erythrocytes (TCS Biosciences Ltd., Buckingham, UK) were washed completely with PBS and resuspended to obtain a 2% horse erythrocyte suspension. Then, the peptide solutions at different concentrations were gently mixed with the same volume of horse red blood cell suspension and the mixture of peptide and horse erythrocytes was placed into a humidified incubator at 37 °C for 2 h. After incubation, the mixture of all experimental groups was centrifuged at 900× g for 10 min and the supernatants obtained were transferred to a blank 96-well plate. The absorbance of each well was measured at 550 nm using the Synergy HT plate reader.

[3] = peptide 128 µM (maximum test concentration), vs 0.1% Triton X-100

SMILES	Trypsin Ki (trypsin)	MIC (S. aureus (ATCC 6538))	MBC (S. aureus (ATCC 6538))	MIC (E. faecalis (NCTC 12697))	MBC (E. faecalis (NCTC 12697))	MIC (E. coli (ATCC 8739))	MBC (E. coli (ATCC 8739))	MIC [1]	MBC [1]	MIC [2]	MBC [2]	MIC (C. albicans (ATCC 10231))	MBC (C. albicans (ATCC 10231))	Concentration inhibiting biofilm formation (MBIC) (E. coli biofilm)	Haemolytic activity (horse erythrocytes; [3])	Ki (trypsin)	Effect on existing biofilms (MBEC) (E. coli biofilm)	Haemolytic activity (horse erythrocytes; peptide 32 µM)
CC(C)C[C@H](NC(=O)[C@H](CCCCN)NC(=O)[C@H](C)NC(=O)[C@H](C)N)C(=O)N1CCC[C@H]1C(=O)N[C@@H](Cc1ccccc1)C(=O)N[C@@H](CCCNC(=N)N)C(=O)N[C@H]1CSSC[C@@H](C(=O)O)NC(=O)[C@H](Cc2ccccc2)NC(=O)[C@H](C)NC(=O)[C@H](C)NC(=O)[C@H](Cc2ccccc2)NC1=O [F9-KOV2] (HELM PEPTIDE1{A.A.K.L.P.F.R.C.F.A.A.F.C}$PEPTIDE1,PEPTIDE1,8:R3-13:R3$$$V2.0)	N.I.	>128 µM	>128 µM	>128 µM	>128 µM	>128 µM	>128 µM	>128 µM	>128 µM	>128 µM	>128 µM	>128 µM	>128 µM	> 128 µM	less than 10%			
CC(C)C[C@H](NC(=O)[C@H](CCCCN)NC(=O)[C@H](C)NC(=O)[C@H](C)N)C(=O)N1CCC[C@H]1C(=O)N[C@@H](Cc1ccccc1)C(=O)N[C@@H](CCCNC(=N)N)C(=O)N[C@H]1CSSC[C@@H](C(=O)O)NC(=O)[C@H](Cc2ccccc2)NC(=O)[C@H](C)NC(=O)[C@H](C)NC(=O)[C@H](CCCCN)NC1=O [Kunitzin-OV2] (HELM PEPTIDE1{A.A.K.L.P.F.R.C.K.A.A.F.C}$PEPTIDE1,PEPTIDE1,8:R3-13:R3$$$V2.0)		>128 µM	>128 µM	>128 µM	>128 µM	128 µM	128/128 µM	>128 µM	>128 µM	>128 µM	>128 µM	>128 µM	>128 µM	> 128 µM	less than 10%	9.82 µM		
CC(C)C[C@H](NC(=O)[C@H](CCCCN)NC(=O)[C@H](C)NC(=O)[C@H](C)NC(=O)CNC(=O)CNC(=O)[C@H](CCCNC(=N)N)NC(=O)[C@H](CCCNC(=N)N)NC(=O)[C@H](CCCNC(=N)N)NC(=O)[C@H](CCC(N)=O)NC(=O)[C@H](CCCNC(=N)N)NC(=O)[C@H](CCCNC(=N)N)NC(=O)[C@H](CCCCN)NC(=O)[C@H](CCCCN)NC(=O)[C@@H](N)CCCNC(=N)N)C(=O)N1CCC[C@H]1C(=O)N[C@@H](Cc1ccccc1)C(=O)N[C@@H](CCCNC(=N)N)C(=O)N[C@H]1CSSC[C@@H](C(=O)O)NC(=O)[C@H](Cc2ccccc2)NC(=O)[C@H](C)NC(=O)[C@H](C)NC(=O)[C@H](Cc2ccccc2)NC1=O [TAT-F9-KOV2] (HELM PEPTIDE1{R.K.K.R.R.Q.R.R.R.G.G.A.A.K.L.P.F.R.C.F.A.A.F.C}$PEPTIDE1,PEPTIDE1,19:R3-24:R3$$$V2.0)	N.I.	64 µM	128 µM	>128 µM	>128 µM	8 µM	8/8 µM	>128 µM	>128 µM	>128 µM	>128 µM	>128 µM	>128 µM	16 µM	about 25%		> 128 µM	10%
CC(C)C[C@H](NC(=O)[C@H](CCCCN)NC(=O)[C@H](C)NC(=O)[C@H](C)NC(=O)CNC(=O)CNC(=O)[C@H](CCCNC(=N)N)NC(=O)[C@H](CCCNC(=N)N)NC(=O)[C@H](CCCNC(=N)N)NC(=O)[C@H](CCC(N)=O)NC(=O)[C@H](CCCNC(=N)N)NC(=O)[C@H](CCCNC(=N)N)NC(=O)[C@H](CCCCN)NC(=O)[C@H](CCCCN)NC(=O)[C@@H](N)CCCNC(=N)N)C(=O)N1CCC[C@H]1C(=O)N[C@@H](Cc1ccccc1)C(=O)N[C@@H](CCCNC(=N)N)C(=O)N[C@H]1CSSC[C@@H](C(=O)O)NC(=O)[C@H](Cc2ccccc2)NC(=O)[C@H](C)NC(=O)[C@H](C)NC(=O)[C@H](CCCCN)NC1=O [TAT-KOV2] (HELM PEPTIDE1{R.K.K.R.R.Q.R.R.R.G.G.A.A.K.L.P.F.R.C.K.A.A.F.C}$PEPTIDE1,PEPTIDE1,19:R3-24:R3$$$V2.0)		32 µM	64 µM	128 µM	> 128 µM	4 µM	4/4 µM	>128 µM	>128 µM	>128 µM	>128 µM	>128 µM	>128 µM	8 µM	10%	10.1 µM	> 128 µM	
